Assay results as given in ChEMBL document CHEMBL1156920, “Structural analogues of schweinfurthin F: probing the steric, electronic, and hydrophobic properties of the D-ring substructure” (Bioorg Med Chem, 2010).

Columns and labels:
Assay type in all cases: functional
ACHN = test: Growth inhibition of human ACHN cells
NCI-H522 = test: Growth inhibition of human NCI-H522 cells
MCF7 = test: Growth inhibition of human MCF7 cells
SK-MEL-5 = test: Growth inhibition of human SK-MEL-5 cells
UO-31 = test: Growth inhibition of human UO31 cells
Malme-3M = test: Growth inhibition of human MALME-3M cells
RXF 393 = test: Growth inhibition of human RXF393 cells
A549 = test: Growth inhibition of human A549 cells
SF-539 = test: Growth inhibition of human SF539 cells
HL-60(TB) = test: Growth inhibition of human HL-60(TB) cells
NCI/ADR-RES = test: Growth inhibition of human NCI/ADR-RES cells
[1] = Growth inhibition of human […] cells
HCT-15 = test: Growth inhibition of human HCT15 cells
MDA-MB-231 = test: Growth inhibition of human MDA-MB-231 cells
DU-145 = test: Growth inhibition of human DU145 cells
EKVX = test: Growth inhibition of human EKVX cells
U-251 = test: Growth inhibition of human U251 cells
HOP-92 = test: Growth inhibition of human HOP92 cells
SN12C = test: Growth inhibition of human SN12C cells
LOX IMVI = test: Growth inhibition of human LOXIMVI cells
OVCAR-4 = test: Growth inhibition of human OVCAR4 cells
786-0 = test: Growth inhibition of human 786-0 cells
TK-10 = test: Growth inhibition of human TK10 cells
HCC 2998 = test: Growth inhibition of human HCC2998 cells
T47D = test: Growth inhibition of human T47D cells
KM12 = test: Growth inhibition of human KM12 cells
BT-549 = test: Growth inhibition of human BT549 cells
SNB-19 = test: Growth inhibition of human SNB19 cells
SK-OV-3 = test: Growth inhibition of human SKOV3 cells
HCT-116 = test: Growth inhibition of human HCT116 cells
NCI-H322M = test: Growth inhibition of human NCI-H322M cells
HOP-62 = test: Growth inhibition of human HOP62 cells
A498 = test: Growth inhibition of human A498 cells
SR = test: Growth inhibition of human SR cells
PC-3 = test: Growth inhibition of human PC3 cells
COLO 205 = test: Growth inhibition of human COLO205 cells
[2] = Cytotoxicity against human NCI60 cells
CAKI-1 = test: Growth inhibition of human Caki1 cells
M14 = test: Growth inhibition of human M14 cells
NCI-H226 = test: Growth inhibition of human NCI-H226 cells
MDA-MB-468 = test: Growth inhibition of human MDA-MB-468 cells
CCRF-CEM = test: Growth inhibition of human CCRF-CEM cells
UACC-257 = test: Growth inhibition of human UACC257 cells
[3] = read-out: pLC50 (the source's name) (converted)

COc1cc(CCc2cc(O)c(C/C=C(\C)CC/C=C(\C)CO)c(O)c2)cc2c1O[C@]1(C)CC[C@@H](O)C(C)(C)[C@H]1C2
GI50 (ACHN): 5.25 µM | CC50 (ACHN; [3]): > 100 µM | TGI (ACHN; read-out: pTGI (converted)): 35.5 µM | GI50 (NCI-H522): 5.25 µM | LC50 (50% lethal concentration) (NCI-H522): > 100 µM | TGI (NCI-H522; read-out: pTGI (converted)): 29.5 µM | GI50 (MCF7): 2.95 µM | CC50 (MCF7; [3]): 53.7 µM | TGI (MCF7; read-out: pTGI (converted)): 12.9 µM | GI50 (SK-MEL-5): 3.39 µM | LC50 (SK-MEL-5): 33.1 µM | TGI (SK-MEL-5; read-out: pTGI (converted)): 11 µM | GI50 (UO-31): 3.47 µM | CC50 (UO-31; [3]): > 100 µM | TGI (UO-31; read-out: pTGI (converted)): 20 µM | GI50 (Malme-3M): 6.31 µM | LC50 (Malme-3M): > 100 µM | TGI (Malme-3M; read-out: pTGI (converted)): 38 µM | GI50 (RXF 393): 0.363 µM | CC50 (RXF 393; [3]): > 100 µM | TGI (RXF 393; read-out: pTGI (converted)): 1.38 µM | GI50 (A549): 4.9 µM | LC50 (50% lethal concentration) (A549): > 100 µM | TGI (A549; read-out: pTGI (converted)): 95.5 µM | GI50 (SF-539): 2.29 µM | LC50 (SF-539): 33.9 µM | TGI (SF-539; read-out: pTGI (converted)): 11.7 µM | GI50 (HL-60(TB)): 3.02 µM | CC50 (HL-60(TB); [3]): 95.5 µM | TGI (HL-60(TB); read-out: pTGI (converted)): 12.6 µM | GI50 (NCI/ADR-RES): 17.4 µM | CC50 (NCI/ADR-RES; [3]): > 100 µM | TGI (NCI/ADR-RES; read-out: pTGI (converted)): 61.7 µM | GI50 [1]: 1.45 µM | LC50 [1]: > 100 µM | TGI ([1]; read-out: pTGI (converted)): 7.24 µM | GI50 (HCT-15): 5.01 µM | LC50 (HCT-15): > 100 µM | TGI (HCT-15; read-out: pTGI (converted)): 22.9 µM | GI50 (MDA-MB-231): 8.13 µM | LC50 (MDA-MB-231): > 100 µM | TGI (MDA-MB-231; read-out: pTGI (converted)): 38 µM | GI50 (DU-145): 6.46 µM | LC50 (DU-145): > 100 µM | TGI (DU-145; read-out: pTGI (converted)): 28.2 µM | GI50 (EKVX): 5.75 µM | LC50 (EKVX): > 100 µM | TGI (EKVX; read-out: pTGI (converted)): 33.1 µM | GI50 (U-251): 3.02 µM | LC50 (U-251): 58.9 µM | TGI (U-251; read-out: pTGI (converted)): 18.6 µM | GI50 (HOP-92): 7.41 µM | LC50 (HOP-92): > 100 µM | TGI (HOP-92; read-out: pTGI (converted)): 47.9 µM | GI50 (SN12C): 7.59 µM | LC50 (SN12C): > 100 µM | TGI (SN12C; read-out: pTGI (converted)): 52.5 µM | GI50 (LOX IMVI): 4.47 µM | LC50 (LOX IMVI): 46.8 µM | TGI (LOX IMVI; read-out: pTGI (converted)): 16.6 µM | GI50 (OVCAR-4): 11.5 µM | CC50 (OVCAR-4; [3]): > 100 µM | TGI (OVCAR-4; read-out: pTGI (converted)): 45.7 µM | GI50 (786-0): 2.4 µM | LC50 (786-0): > 100 µM | TGI (786-0; read-out: pTGI (converted)): > 100 µM | GI50 (TK-10): 13.2 µM | LC50 (TK-10): > 100 µM | TGI (TK-10; read-out: pTGI (converted)): 67.6 µM | GI50 (HCC 2998): 6.17 µM | TGI (HCC 2998; read-out: pTGI (converted)): 25.1 µM | GI50 (T47D): 5.89 µM | CC50 (T47D; [3]): > 100 µM | TGI (T47D; read-out: pTGI (converted)): 35.5 µM | GI50 (KM12): 4.17 µM | LC50 (KM12): 91.2 µM | TGI (KM12; read-out: pTGI (converted)): 18.6 µM | GI50 (BT-549): 3.16 µM | CC50 (BT-549; [3]): 75.9 µM | TGI (BT-549; read-out: pTGI (converted)): 21.9 µM | GI50 (SNB-19): 4.17 µM | LC50 (SNB-19): 49 µM | TGI (SNB-19; read-out: pTGI (converted)): 18.2 µM | GI50 (SK-OV-3): 8.51 µM | LC50 (SK-OV-3): > 100 µM | TGI (SK-OV-3; read-out: pTGI (converted)): 31.6 µM | GI50 (HCT-116): 3.47 µM | CC50 (HCT-116; [3]): 40.7 µM | TGI (HCT-116; read-out: pTGI (converted)): 13.2 µM | GI50 (NCI-H322M): 5.5 µM | CC50 (NCI-H322M; [3]): > 100 µM | TGI (NCI-H322M; read-out: pTGI (converted)): 42.7 µM | GI50 (HOP-62): 10 µM | LC50 (HOP-62): 53.7 µM | TGI (HOP-62; read-out: pTGI (converted)): 22.9 µM | GI50 (A498): 7.59 µM | LC50 (A498): > 100 µM | TGI (A498; read-out: pTGI (converted)): 61.7 µM | GI50 (SR): 2.09 µM | LC50 (SR): 66.1 µM | TGI (SR; read-out: pTGI (converted)): 7.59 µM | GI50 (PC-3): 5.5 µM | CC50 (PC-3; [3]): > 100 µM | TGI (PC-3; read-out: pTGI (converted)): 77.6 µM | GI50 (COLO 205): 10.7 µM | LC50 (COLO 205): 67.6 µM | TGI (COLO 205; read-out: pTGI (converted)): 26.9 µM | GI50 [2]: 4.9 µM | GI50 (CAKI-1): 4.37 µM | LC50 (CAKI-1): > 100 µM | TGI (CAKI-1; read-out: pTGI (converted)): 21.9 µM | GI50 (M14): 6.03 µM | CC50 (M14; [3]): 83.2 µM | TGI (M14; read-out: pTGI (converted)): 23.4 µM | GI50 (NCI-H226): 13.2 µM | LC50 (NCI-H226): > 100 µM | TGI (NCI-H226; read-out: pTGI (converted)): 66.1 µM | GI50 (MDA-MB-468): 5.89 µM | LC50 (MDA-MB-468): > 100 µM | TGI (MDA-MB-468; read-out: pTGI (converted)): 50.1 µM | GI50 (CCRF-CEM): 4.07 µM | CC50 (CCRF-CEM; [3]): > 100 µM | TGI (CCRF-CEM; read-out: pTGI (converted)): 45.7 µM | GI50 (UACC-257): 6.61 µM | LC50 (UACC-257): > 100 µM | TGI (UACC-257; read-out: pTGI (converted)): 28.2 µM
